29 compounds from patent publication US12398120B2, “Substituted hydantoinamides as ADAMTS7 antagonists” (BAYER AKTIENGESELLSCHAFT, priority 2019, dated 2025) can be followed below.

The assay concerns the target ADAMTS4 (Homo sapiens (Human), UniProt O75173). Put plainly: Selectivity assay for ADAMTS-7 modulators: ADAMTS4 (FRET substrate). In kind it is biochemical. The note with it: ADAMTS4 (R&D 4307-AD) 50 nM, substrate Dabcyl-EEVKAKVQPY-Glu(Edans)-NH2 1 μM, 120 min, 32° C. The method, boiled down: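 Activity read as rising fluorescence after a FRET substrate is cleaved by human ADAMTS4, with reactions started by substrate addition to wells holding compound or DMSO. Percent inhibition plotted against concentration gave IC50.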

Sequence of ADAMTS4 (O75173 213-685): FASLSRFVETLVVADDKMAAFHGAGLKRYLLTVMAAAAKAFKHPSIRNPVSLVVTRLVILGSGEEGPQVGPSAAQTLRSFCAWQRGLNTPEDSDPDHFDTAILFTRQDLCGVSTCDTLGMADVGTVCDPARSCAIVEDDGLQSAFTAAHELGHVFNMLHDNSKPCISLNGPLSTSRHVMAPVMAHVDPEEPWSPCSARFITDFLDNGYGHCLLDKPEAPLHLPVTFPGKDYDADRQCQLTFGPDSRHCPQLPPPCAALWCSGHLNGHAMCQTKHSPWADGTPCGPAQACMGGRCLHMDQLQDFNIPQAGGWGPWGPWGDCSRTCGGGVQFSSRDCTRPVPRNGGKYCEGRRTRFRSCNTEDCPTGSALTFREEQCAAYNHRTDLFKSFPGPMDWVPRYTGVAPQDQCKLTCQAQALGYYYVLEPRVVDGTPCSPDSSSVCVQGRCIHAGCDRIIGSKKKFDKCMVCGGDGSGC

For orientation: IC50 means the concentration that inhibits the measured activity by half. High values mean weaker potency in that assay, low ones greater potency in that assay. Regarding `Cc1cnsc1C1(CNC(=O)c2ccccc2-c2ccc(C(F)(F)F)cc2)NC(=O)NC1=O` (racemic) [Example 97, Rac-N-{[4-(4-Methyl-1,2-Thiazol-5-Yl)-2,5-Dioxoimidazolidin-4-Yl]Methyl}-4′-(Trifluoromethyl)[Biphenyl]-2-Carboxamide], the half-inhibitory concentration (IC50) is 7.2 µM. In turn, `CCC1(CNC(=O)c2ccccc2-c2ccc(C(F)(F)F)cc2)NC(=O)NC1=O` (racemic) [Example 81, Rac-N-[(4-Ethyl-2,5-Dioxoimidazolidin-4-Yl)Methyl]-4′-(Trifluoromethyl)[Biphenyl]-2-Carboxamide] came in with a concentration for half-maximal inhibition (IC50) of over 50 µM.

The compound `Cn1ccnc1C1(CNC(=O)c2cc(F)ccc2-c2ccc(C(F)(F)F)cc2)NC(=O)NC1=O` (single isomer, unassigned; ent-4) [Example 149, Ent-4-Fluoro-N-{[4-(1-Methyl-1H-Imidazol-2-Yl)-2,5-Dioxoimidazolidin-4-Yl]Methyl}-4′-(Trifluoromethyl)[Biphenyl]-2-Carboxamide] registered a half-inhibitory concentration (IC50) of 1.15 µM. For `Cn1ccnc1C1(CNC(=O)c2ccccc2-c2ccc(Cl)cc2)NC(=O)NC1=O` (single isomer, unassigned; ent-4) [Example 155, Ent-4′-Chloro-N-{[4-(1-Methyl-1H-Imidazol-2-Yl)-2,5-Dioxoimidazolidin-4-Yl]Methyl}[Biphenyl]-2-Carboxamide], half-maximal inhibition (IC50) required 5.9 µM. The same measure for `Cc1conc1C1(CNC(=O)c2ccccc2-c2ccc(C(F)(F)F)cc2)NC(=O)NC1=O` (stereo not drawn) [Example 69, Ent-N-{[4-(4-Methyl-1,2-Oxazol-3-Yl)-2,5-Dioxoimidazolidin-4-Yl]Methyl}-4′-(Trifluoromethyl)[Biphenyl]-2-Carboxamide]: 4.9 µM; for `Cn1ccnc1C1(CNC(=O)c2ccc(F)cc2-c2ccc(C(F)(F)F)cc2)NC(=O)NC1=O` (single isomer, unassigned; ent-5) [Example 150, Ent-5-Fluoro-N-{[4-(1-Methyl-1H-Imidazol-2-Yl)-2,5-Dioxoimidazolidin-4-Yl]Methyl}-4′-(Trifluoromethyl)[Biphenyl]-2-Carboxamide]: 1.85 µM; for `O=C1NC(=O)C(CNC(=O)c2ccc(F)c(F)c2-c2ccc(C(F)(F)F)cc2)(c2cscn2)N1` (stereo not drawn) [Example 278, Ent-N-{[2,5-Dioxo-4-(1,3-Thiazol-4-Yl)Imidazolidin-4-Yl]Methyl}-5,6-Difluoro-4′-(Trifluoromethyl)[Biphenyl]-2-Carboxamide]: 8.6 µM.

The compound `Cc1ccc(-c2cnccc2C(=O)NC[C@@]2(C3CC3)NC(=O)NC2=O)cc1` [Example 19, N-{[(4R)-4-Cyclopropyl-2,5-Dioxoimidazolidin-4-Yl]Methyl}-3-(4-Methylphenyl)Isonicotinamide] yielded an IC50 of over 50 µM. The same measure for `O=C1NC(=O)[C@](CNC(=O)c2ccccc2-c2ccc(Cl)cc2F)(C2CC2)N1` [Example 54, 4′-Chloro-N-{[(4R)-4-Cyclopropyl-2,5-Dioxoimidazolidin-4-Yl]Methyl}-2′-Fluoro[Biphenyl]-2-Carboxamide]: 32 µM; for `Cn1nccc1C1(CNC(=O)c2cc(F)ccc2-c2ccc(C(F)(F)F)cc2)NC(=O)NC1=O` (single isomer, unassigned; ent-4) [Example 178, Ent-4-Fluoro-N-{[4-(1-Methyl-1H-Pyrazol-5-Yl)-2,5-Dioxoimidazolidin-4-Yl]Methyl}-4′-(Trifluoromethyl)[Biphenyl]-2-Carboxamide]: 5.37 µM. The compound `O=C1NC(=O)[C@](CNC(=O)c2ccc(C(F)(F)F)cc2-c2ccc(C3CC3)cc2)(C2CC2)N1` [Example 108, 4′-Cyclopropyl-N-{[(4R)-4-Cyclopropyl-2,5-Dioxoimidazolidin-4-Yl]Methyl}-5-(Trifluoromethyl)[Biphenyl]-2-Carboxamide] had a half-maximal inhibitory concentration (IC50) of 19 µM. Compared with the last compound, the IC50 is about 3.5-fold higher. Consider `Cn1nccc1C1(CNC(=O)c2ccccc2-c2ccc(Cl)cc2F)NC(=O)NC1=O` (single isomer, unassigned; ent-4) [Example 313, Ent-4′-Chloro-2′-Fluoro-N-{[4-(1-Methyl-1H-Pyrazol-5-Yl)-2,5-Dioxoimidazolidin-4-Yl]Methyl}[Biphenyl]-2-Carboxamide], for which the IC50 amounted to 23 µM. In the case of `CCC(F)(F)c1ccc(-c2ccccc2C(=O)NC[C@@]2(C3CC3)NC(=O)NC2=O)cc1` [Example 102, N-{[(4R)-4-Cyclopropyl-2,5-Dioxoimidazolidin-4-Yl]Methyl}-4′-(1,1-Difluoropropyl)[Biphenyl]-2-Carboxamide] it was 6.6 µM. For the compound `Cc1ccc(-c2c(C)cccc2C(=O)NC[C@@]2(C3CC3)NC(=O)NC2=O)cc1` [Example 101, N-{[(4R)-4-Cyclopropyl-2,5-Dioxoimidazolidin-4-Yl]Methyl}-4′,6-Dimethyl[Biphenyl]-2-Carboxamide], the IC50 was 3.2 µM. The same measure for `CC(C)CCC1(CNC(=O)c2ccccc2-c2ccc(C(F)(F)F)cc2)NC(=O)NC1=O` (racemic) [Example 58, Rac-N-{[4-(3-Methylbutyl)-2,5-Dioxoimidazolidin-4-Yl]Methyl}-4′-(Trifluoromethyl)[Biphenyl]-2-Carboxamide]: over 50 µM; for `O=C1NC(=O)C(CNC(=O)c2ccccc2-c2ccc(C(F)(F)F)cc2)(C2CCOCC2)N1` (racemic) [Example 29, Rac-N-{[2,5-Dioxo-4-(Tetrahydro-2H-Pyran-4-Yl)Imidazolidin-4-Yl]Methyl}-4′-(Trifluoromethyl)[Biphenyl]-2-Carboxamide]: over 50 µM; for `Cc1c(C2(CNC(=O)c3ccc(F)c(F)c3-c3ccc(C(F)(F)F)cc3)NC(=O)NC2=O)cnn1C` (racemic) [Example 316, Rac-N-{[4-(1,5-Dimethyl-1H-Pyrazol-4-Yl)-2,5-Dioxoimidazolidin-4-Yl]Methyl}-5,6-Difluoro-4′-(Trifluoromethyl)[Biphenyl]-2-Carboxamide]: 12 µM.

`O=C1NC(=O)C(CNC(=O)c2ccc(F)cc2-c2ccc(C(F)(F)F)cc2)(C2(F)CC2)N1` (racemic) [Example 252, Rac-5-Fluoro-N-{[4-(1-Fluorocyclopropyl)-2,5-Dioxoimidazolidin-4-Yl]Methyl}-4′-(Trifluoromethyl)[Biphenyl]-2-Carboxamide] had a concentration for half-maximal inhibition (IC50) of 41 µM. The same measure for `O=C1NC(=O)[C@](CNC(=O)c2ccc(Cl)c(F)c2-c2ccc(C(F)(F)F)cc2)(C2CC2)N1` [Example 93, 5-Chloro-N-{[(4R)-4-Cyclopropyl-2,5-Dioxoimidazolidin-4-Yl]Methyl}-6-Fluoro-4′-(Trifluoromethyl)[1,1′-Biphenyl]-2-Carboxamide]: 3.4 µM. The same measure for `O=C1NC(=O)C(CNC(=O)c2ccccc2-c2ccc(C(F)(F)F)cc2)(c2ccccc2)N1` (racemic) [Example 12, Rac-N-[(2,5-Dioxo-4-Phenylimidazolidin-4-Yl)Methyl]-4′-(Trifluoromethyl)[Biphenyl]-2-Carboxamide]: over 50 µM; for `Cn1ccnc1C1(CNC(=O)c2cc(F)ccc2-c2ccc(Cl)cc2)NC(=O)NC1=O` (single isomer, unassigned; ent-4) [Example 160, Ent-4′-Chloro-4-Fluoro-N-{[4-(1-Methyl-1H-Imidazol-2-Yl)-2,5-Dioxoimidazolidin-4-Yl]Methyl}[Biphenyl]-2-Carboxamide]: 0.83 µM. In the case of `Cc1nonc1C1(CNC(=O)c2ccccc2-c2ccc(C(F)(F)F)cc2)NC(=O)NC1=O` (stereo not drawn) [Example 73, Ent-N-{[4-(4-Methyl-1,2,5-Oxadiazol-3-Yl)-2,5-Dioxoimidazolidin-4-Yl]Methyl}-4′-(Trifluoromethyl)[Biphenyl]-2-Carboxamide] it was 20 µM; in that of `CCc1ccc(-c2ccccc2C(=O)NC[C@@]2(C3CC3)NC(=O)NC2=O)cc1` [Example 106, N-{[(4R)-4-Cyclopropyl-2,5-Dioxoimidazolidin-4-Yl]Methyl}-4′-Ethyl[Biphenyl]-2-Carboxamide], 5.4 µM.

Compound `Cc1cn(C)nc1C1(CNC(=O)c2ccccc2-c2ccc(C(F)(F)F)cc2)NC(=O)NC1=O` (racemic) [Example 39, Rac-N-{[4-(1,4-Dimethyl-1H-Pyrazol-3-Yl)-2,5-Dioxoimidazolidin-4-Yl]Methyl}-4′-(Trifluoromethyl)[Biphenyl]-2-Carboxamide] returned an IC50 of 10 µM. `O=C1NC(=O)C(CNC(=O)c2ccccc2-c2ccc(C(F)(F)F)cc2)(c2ncsc2C2CC2)N1` (stereo not drawn) [Example 271, Ent-N-{[4-(5-Cyclopropyl-1,3-Thiazol-4-Yl)-2,5-Dioxoimidazolidin-4-Yl]Methyl}-4′-(Trifluoromethyl)[Biphenyl]-2-Carboxamide]: inhibition was half-maximal at 2.7 µM (IC50). Against the preceding compound, the IC50 is about 3.7-fold lower.

`Cc1scnc1C1(CNC(=O)c2ccccc2-c2ccc(C(F)(F)F)cc2)NC(=O)NC1=O` (single isomer, unassigned) [Example 3, Ent-N-{[4-(5-Methyl-1,3-Thiazol-4-Yl)-2,5-Dioxoimidazolidin-4-Yl]Methyl}-4′-(Trifluoromethyl)[Biphenyl]-2-Carboxamide] had an IC50 of 4.8 µM. The same measure for `O=C1NC(=O)C(CNC(=O)c2ccccc2-c2ccc(C(F)(F)F)nc2)(c2ccccc2)N1` (racemic) [Example 50, Rac-N-[(2,5-Dioxo-4-Phenylimidazolidin-4-Yl)Methyl]-2-[6-(Trifluoromethyl)Pyridin-3-Yl]Benzamide]: 43 µM; for `COc1ccc(C(=O)NC[C@@]2(C3CC3)NC(=O)NC2=O)c(-c2ccc(C(F)(F)F)cc2)c1` [Example 107, N-{[(4R)-4-Cyclopropyl-2,5-Dioxoimidazolidin-4-Yl]Methyl}-5-Methoxy-4′-(Trifluoromethyl)[Biphenyl]-2-Carboxamide]: 6.2 µM. `Cn1cncc1C1(CNC(=O)c2ccccc2-c2ccc(C(F)(F)F)cc2)NC(=O)NC1=O` (stereo not drawn) [Example 297, Ent-N-{[4-(1-Methyl-1H-Imidazol-5-Yl)-2,5-Dioxoimidazolidin-4-Yl]Methyl}-4′-(Trifluoromethyl)[Biphenyl]-2-Carboxamide] showed a half-inhibitory concentration (IC50) of 4.1 µM.
